The text below walks through data of patent publication US11319285B2, “N-acylated methionine sulfoxides as food flavouring compounds” (Givaudan S.A., priority 2015, dated 2022).

Assay [1] in a line: Expert taster comparison in UNOX 'Franse uiensoep' onion soup. The settings on record: 10 ppb in UNOX 'Franse uiensoep'. The method, then:
(§1) Samples were evaluated by expert tasters. Tasters were asked to describe the samples focusing on authentic taste, mouthfeel, fullness, salty-ness, salivation, umami, sweetness, juiciness, richness, long lastingness and fattiness
Base is UNOX ‘Franse uiensoep’

Assay [2] in a line: Expert taster comparison in a cheese onion crisp. The settings on record: 10 ppb in crisp with proprietary cheese onion powder flavoring @ 6%. The method, then:
as §1
Comparison in a Cheese Onion Crisp
Base is a crisp with proprietary cheese onion powder flavoring @ 6%

Assay [3] is described as follows: Expert taster comparison in Campbell's French onion soup. The settings on record: 10 ppb in Campbell's French onion soup. Here is the method:
as §1
Base is Campbell's® French onion soup

The nature of assay [4]: Expert taster comparison in a cheese sauce. The settings on record: 0.5 ppm in Maggie Saus Base with 0.05 g ethanol. The method, then:
Samples were evaluated by expert tasters. Tasters were asked to describe the samples focusing on authentic taste, mouthfeel, fullness, salty-ness, salivation, umami, sweetness, juiciness, richness, long lastingness and fattiness.
Comparison in a Cheese Sauce
Base is a Maggie Saus Base with 0.05 g ethanol

`CCCCCCCC/C=C\CCCCCCCC(=O)N[C@@H](CC[S+](C)[O-])C(=O)O` (stereo partly drawn) [Met-SO C18:1, (2S)-4-(methylsulfinyl)-2-oleamidobutanoic acid]: the “taste description versus base” value is listed as “slightly stronger in salt; onion character increased” in assay [1], “salt/taste level enhanced; onion character more fried” in assay [2] and “slightly stronger in salt; onion character slightly enhanced” in assay [3].

Regarding `CCCCCCCC/C=C\CCCCCCCC(=O)N[C@H](C[S+](C)[O-])C(=O)O` (stereo partly drawn) [(2S)-3-(methylsulfinyl)-2-oleamidopropanoic acid], the “taste description versus base” value in assay [4] is reported as “salt/umami/fullness/cheesiness level enhanced”.
